Consider 2 compounds from patent US5646172A, “Method of inducing antiandrogenic activity using imidazolidines substituted with a heterocycle” (Roussel Uclaf, priority 1994, dated 1997).

This assay concerns the target T1, androgen receptor (Rattus norvegicus, UniProt P15207).
T1 construct: from tissue; host or cells: prostate cytosol (209,000 g supernatant) of male Sprague Dawley rats castrated 24 hours previously
T1 sequence (P15207 1-902): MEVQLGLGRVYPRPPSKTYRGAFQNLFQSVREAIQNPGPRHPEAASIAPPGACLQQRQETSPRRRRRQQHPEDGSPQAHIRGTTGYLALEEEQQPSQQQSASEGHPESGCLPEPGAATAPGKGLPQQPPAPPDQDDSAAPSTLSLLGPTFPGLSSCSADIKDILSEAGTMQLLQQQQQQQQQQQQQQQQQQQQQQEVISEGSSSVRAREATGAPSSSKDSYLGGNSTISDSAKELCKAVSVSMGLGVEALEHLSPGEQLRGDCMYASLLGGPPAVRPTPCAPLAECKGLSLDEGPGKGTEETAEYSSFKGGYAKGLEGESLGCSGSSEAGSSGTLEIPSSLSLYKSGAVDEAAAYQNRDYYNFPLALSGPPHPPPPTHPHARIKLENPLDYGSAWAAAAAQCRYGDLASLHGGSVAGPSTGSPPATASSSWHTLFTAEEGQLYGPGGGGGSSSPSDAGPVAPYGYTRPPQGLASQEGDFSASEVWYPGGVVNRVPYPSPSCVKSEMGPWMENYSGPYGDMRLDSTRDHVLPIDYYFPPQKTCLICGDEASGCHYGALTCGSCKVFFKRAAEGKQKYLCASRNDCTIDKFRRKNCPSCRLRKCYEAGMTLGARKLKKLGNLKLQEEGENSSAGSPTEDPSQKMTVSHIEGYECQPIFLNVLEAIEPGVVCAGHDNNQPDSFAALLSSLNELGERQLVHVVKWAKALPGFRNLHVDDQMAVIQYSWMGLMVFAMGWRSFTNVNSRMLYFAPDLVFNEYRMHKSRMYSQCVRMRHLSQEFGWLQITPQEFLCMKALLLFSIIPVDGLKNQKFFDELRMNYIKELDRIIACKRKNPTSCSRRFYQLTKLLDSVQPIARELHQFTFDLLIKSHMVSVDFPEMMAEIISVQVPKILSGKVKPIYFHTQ
The experiment in a line: Affinity of the products for the androgen receptor (relative bond affinity, displacement of tritiated testosterone in prostate cytosol). It is filed as binding. Here is the method:
Study of the affinity of the products for the androgen receptor
Calculation of the relative bond affinity (RBA).
The following 2 curves were drawn: the percentage of bound tritiated hormone B/T as a function of the logarithm of the concentration of the unlabelled reference hormone and B/T as a function of the logarithm of the concentration of the unlabelled tested product. The straight line of the equation I50 =(B/Tmax+B/Tmin)/2 was determined.
B/T max=% of the bound tritiated hormone for an incubation of this tritiated hormone at the concentration (T).
B/T min=% of the bound tritiated hormone for an incubation of this tritiated hormone at the concentration (T) in the presence of a large excess of unlabelled hormone (2500.10^-9 M).
The intersections of the straight line I50 and the curves allowed the evaluation of the concentrations of the unlabelled reference hormone (CH) and of the tested unlabelled product (CX) which inhibit by 50% the binding of the tritiated hormone on the receptor.

In the case of `N#CCN1C(=O)N(c2ccc(C#N)c(C(F)(F)F)c2)C(=O)C12CCOCC2` [Example 10, 3-(4-cyano-3-(trifluoromethyl)-phenyl)-2,4-dioxo-8-oxa-1,3-diazaspiro[4.5]decan-1-acetonitrile], the “RBA: Incubation 24 hours” value is given as 5. As for `N#Cc1ccc(N2C(=O)N(CCCCO)C3(CCOCC3)C2=O)cc1C(F)(F)F` [Example 3, 4-(2,4-dioxo-1-(4-hydroxybutyl)-8-oxa-1,3-diazaspiro[4.5]decan-3-yl)-2-(trifluoromethyl)-benzonitrile], the figure is 6.
